We go through 1 molecule from paper PMC12405493, “Selective ubiquitination of drug-like small molecules by the ubiquitin ligase HUWE1” (Nature Communications, 2025).

This assay relates to HEK293T cells. The assay is described as follows: Quantitative total proteomics. Conditions: 15 μM, 24 h vs DMSO. It counts as cell-based, human. Here is the method: For total proteomics and Ub remnant profiling (diGly proteomics), HEK293T cells were treated with 15 μM BI8626 (in DMSO) or an equivalent volume of DMSO for 24 h, washed with ice-cold 1 x DPBS, and lysed in 9 M urea, 50 mM Tris (pH 8.0) and 150 mM NaCl, supplemented with protease inhibitor (Roche) and 50 µM PR-619, and processed essentially as described. Briefly, the cells were lysed by sonication, non-solubilized material removed by centrifugation, and the protein concentration was determined with a Pierce BCA Protein Assay Kit. 5 mg was used for further MS processing and four biological replicates per condition.
After reduction with 5 mM DTT and alkylation with 10 mM chloroacetamide, followed by quenching with 5 mM DTT, lysates were digested with 5 ng/μl LysC protease (Wako) at RT for 1 h. Subsequent digestion of peptides with trypsin (Promega) at a 1: 200 enzyme: peptide ratio was performed. Desalted and lyophilized peptides were resuspended in 1.5 ml IAP buffer (50 mM MOPS (pH 7.2), 10 mM Na2HPO4, 50 mM NaCl) and centrifuged to remove insoluble material. […]
Data collection was controlled by Tune v.4.0.4084.22 (Thermo Scientific) and Xcalibur v.2.4 (Thermo Fisher Scientific). Raw data files from quadruplicate samples were analyzed using MaxQuant v.1.6.0.1 (Max Planck Institute of Biochemistry)[56],[57]. […]

Structures are written as SMILES.

On to `NCc1cccc(CNc2ncnc3c(N4CCN(Cc5ccccc5)CC4)ncnc23)c1` [BI8626], for which the Total proteome changes entry is given as “widespread compound-induced changes”.
